From patent US7473783B2, “Bicyclic pyrazolo protein kinase modulators” (SGX Pharmaceuticals, Inc., priority 2003, dated 2009)
Positions count from the first letter of the chain named.

Columns and labels:
Format in all cases: biochemical
[1] = biological target: T1, autophosphorylated FLT3 kinase domain (FLT3KD) (Homo sapiens, UniProt P36888); assay: FLT3 kinase assay (PK/LDH coupled, NADH loss at 340 nm); settings: 250 μM ATP
T1 construct: purified and autophosphorylated FLT3 kinase domain (FLT3KD); 6xHis (C); made in house; host or cells: baculovirus, SF9 / SF21 insect cells
T1 sequence (P36888 610-943 limits assumed): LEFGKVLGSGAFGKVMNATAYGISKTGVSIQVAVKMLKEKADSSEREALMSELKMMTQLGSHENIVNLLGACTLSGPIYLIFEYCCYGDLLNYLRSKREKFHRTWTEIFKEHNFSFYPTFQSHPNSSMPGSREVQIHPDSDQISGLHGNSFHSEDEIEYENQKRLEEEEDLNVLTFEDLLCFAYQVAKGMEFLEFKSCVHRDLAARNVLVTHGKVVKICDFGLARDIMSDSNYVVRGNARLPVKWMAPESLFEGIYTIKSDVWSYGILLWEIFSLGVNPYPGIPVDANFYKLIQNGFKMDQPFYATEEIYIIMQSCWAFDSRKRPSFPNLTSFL
Description: Although this example presents the use of the FLT3 kinase domain, the kinase assays may use various forms of FLT3, including, for example, the entire molecule, the kinase domain, or a portion thereof.
Materials : Substrate peptide=Poly (Glu, Tyr) 4:1=poly EY (Sigma P-0275); βNADH (Sigma CAT#N-8129, FW=709.4); 2M MgCl2; 1M HEPES buffer, pH 7.5; Phosphoenolpyruvate=PEP (Sigma CAT#P-7002, FW=234); Lactate dehydrogenase=LDH (Worthington Biochemical CAT#2756); Pyruvate Kinase=PK (Sigma CAT#P-9136); ATP (Sigma CAT#A-3377, FW=551); Greiner 384-well UV star plate; and purified and autophosphorylated FLT3 kinase domain (FLT3KD).
Stock Solutions: 10 mM NADH (7.09 mg/mL in miliQH2O) make fresh daily; 1 mg/mL Poly EY (in miliQH2O) store at −20° C.; 200mM HEPES buffer, pH 7.5 (10 ml 1M stock+40 ml miliQH2O) supplemented with 1 mM DTT; 100 mM MgCl2 (5 mL+95 ml dH2)); 100 mM PEP (23.4 mg/mL in dH2O) store at −20° C.; 10 mM ATP (5.51 mg/mL in dH2O) store at −20° C. (dilute 1 mL into total of 10 mL miliQH2O daily=1 mM ATP working stock); 1000 U/mL PK (U/mg varies with lot) flash-freeze under liquid N2 and store at −80° C.; 1000 U/mL LDH (U/mg varies with lot) flash-freeze under liquid N2 and store at −80° C.
Standard Assay Setup for 384-well format (50 μl reaction): 300 μM NADH; 10 mM MgCl2; 2 mM PEP; 45 U/mL PK; 60 U/mL LDH; 1 mg/mL Poly EY; 2.5 μL test compound (in DMSO); 10 μg/mL autophosphorylated FLT3 kinase domain; 250 μM ATP*; 100 mM HEPES buffer; QS with miliQ dH2O to 50 μL. Positive controls contained DMSO with no test compound. Negative controls contained 5 μl of 0.5M EDTA (50 mM in the assay). The kinase reaction was initiated at time t=0 by the addition of ATP.
The unphosphorylated FLT3KD that was produced required pre-incubation with MgATP to allow for autophosphorylation and full kinase activity. The autophosphorylation reaction was run in 100 mM HEPES buffer, 1 mM DTT, and 1 mg/mL FLT3KD by the addition of ATP and MgCl2 to a final concentration of 2 mM and 10 mM respectively. The reaction was allowed to proceed at room temperature for 90 minutes, and then was quenched by the addition of EDTA to 50 mM. The autophosphorylated protein was then aliquotted and flash frozen in liquid N2 for use.
(§1) The activity was measured by following the time-dependent loss of NADH by absorbance spectroscopy at 340 nm. The linear portion of the resulting progress curve was then be analyzed by linear regression to get the activity in absorbance units/time, reported as the slope of that best fit line (moles/unit time can be calculated from using molar extinction coeffecient for NADH at 340 nm, 6250M^−1cm^−1).
Data was analyzed using the equation: Z′=1−[3*(σ++σ−)/|μ+−μ−|], where μ denotes the mean and σ the standard deviation. The subscript designates positive or negative controls. The Z′ score for a robust screening assay should be ≧0.50. The typical threshold=μ+−3*σ+. Any value that falls below the threshold was designated a “hit.”
The dose response was measured using the equation: y=min+{(max−min)/1+10^[compound]-logIC50)}, where y is the observed initial slope, max is the slope in the absence of inhibitor, min is the slope at infinite inhibitor, and the IC50 is the [compound] that corresponds to ½ the total observed amplitude (Amplitude=max−min). The IC50 is related to the Ki by the following equation: IC50=Ki(1+[ATP]/Km).
To measure modulation, activation, or inhibition of FLT3KD, a test compound was added to the assay at a range of concentrations. Inhibitors may inhibit FLT3KD activity at an IC50 in the micromolar range, the nanomolar range, and, for example, in the subnanomolar range. […]

[2] = biological target: T2, Abl T315I kinase domain, unphosphorylated (Mus musculus, UniProt P00520, T315I); assay: Abl T315I kinase assay (PK/LDH coupled, NADH loss at 340 nm); settings: Table 8; 10 μM ATP; zero phosphorylation state
T2 construct: Purified and unphosphorylated T315I Abl kinase domain (clone 5582d42PPt6p6); made in house; host or cells: E. coli BL21(DE3) pSA0145, phosphatase co-expression plasmid
T2 sequence (P00520 242-493 T315I limits assumed): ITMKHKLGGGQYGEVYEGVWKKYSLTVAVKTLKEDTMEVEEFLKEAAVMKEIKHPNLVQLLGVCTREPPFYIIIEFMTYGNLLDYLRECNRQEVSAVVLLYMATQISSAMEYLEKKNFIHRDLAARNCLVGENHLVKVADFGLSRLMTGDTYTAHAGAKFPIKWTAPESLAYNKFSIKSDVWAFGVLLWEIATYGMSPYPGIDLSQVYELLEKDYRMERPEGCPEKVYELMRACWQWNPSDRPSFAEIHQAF
Description: (§2) Although this example presents the use of the kinase domain of a mutant form of Abl T315I 0-P, the kinase assays may use various forms of mutant and wild type Abl, including, for example, the entire molecule, the kinase domain, or a portion thereof. The kinases used in the assays may also be of varying phophorylation states. In the present example, a mutant kinase at a zero phosphorylation state was used.
(§3) Materials: Abl substrate peptide=EAIYAAPFAKKK-OH (Biopeptide, SD CA); βNADH (Sigma CAT#N-8129, FW=709.4); 2M MgCl2; 1M HEPES buffer, pH 7.5; Phosphoenolpyruvate=PEP (Sigma CAT#P-7002, FW=234); Lactate dehydrogenase=LDH (Worthington Biochemical CAT#2756); Pyruvate Kinase=PK (Sigma CAT#P-9136); ATP (Sigma CAT#A-3377, FW=551); Greiner 384-well UV star plate; and Purified and unphosphorylated T315I Abl kinase domain (clone 5582d42PPt6p6).
(§4) Stock Solutions: 10 mM NADH (7.09 mg/mL in miliQH2O) make fresh daily; 10 mM Abl substrate peptide (13.4 mg/mL in miliQH2O) store at −20° C.; 100 mM HEPES buffer, pH 7.5 (5 mL 1M stock+45 mL miliQH2O); 100 mM MgCl2 (5 mL 2M MgCl2+95 ml dH2O); 100 mM PEP (23.4 mg/mL in dH2O) store at −20° C.; 10 mM ATP (5.51 mg/mL in dH2O) store at −20° C. (dilute 50 μL into total of 10 mL miliQH2O daily=50 μM ATP working stock); 1000 U/mL PK (U/mg varies with lot) flash-freeze under liquid N2 and store at −80° C.; and 1000 U/mL LDH (U/mg varies with lot) flash-freeze under liquid N2 and store at −80° C.
(§5) Standard Assay Setup for 384-well format (50 μl reaction): 300 μM NADH; 10 mM MgCl2; 2 mM PEP; 45 U/mL PK; 60 U/mL LDH; 200 μM Abl substrate peptide; 2.5 μL test compound (in DMSO); 2 μg/mL Abl kinase domain; 10 μM ATP; 100 mM HEPES buffer; QS with miliQ dH2O to 50 μL; Positive controls contained DMSO with no test compound. Negative controls contained 5 μl of 0.5M EDTA (50 mM in the assay). The dephosphorylated form of the c-Abl T315I mutant were used in the biochemical screening assays. The kinase reaction was initiated at time t=0 by the addition of ATP.
as §1, with “coefficient” for “coeffecient”
(§6) Data was analyzed using the equation: Z′=1-[3*(σ++σ−)/|μ+−μ−|], where μ denotes the mean and σ the standard deviation. The subscript designates positive or negative controls. The Z′ score for a robust screening assay should be ≧0.50. The typical threshold=μ+−3*σ+. Any value that falls below the threshold was designated a “hit”.
(§7) Dose response was analyzed using the equation: y=min+{(max−min)/(1+10^[compound]-logIC50)}, where y is the observed initial slope, max=the slope in the absence of inhibitor, min=the slope at infinite inhibitor, and the IC50 is the [compound] that corresponds to ½ the total observed amplitude (Amplitude=max−min).
(§8) To measure modulation, activation, or inhibition of AblKD, a test compound was added to the assay at a range of concentrations. Inhibitors may inhibit AblKD activity at an IC50 in the micromolar range, the nanomolar range, and, for example, in the subnanomolar range.
(§9) To measure the binding of a compound to Abl or AblKD, a test kit manufactured by Discoverx (Fremont, Calif.), ED—Staurosporine NSIP™ Enzyme Binding Assay Kit (see U.S. Pat. No. 5,643,734) was used.

[3] = biological target: T3, Abl Y393F (Mus musculus, UniProt P00520, Y393F); assay: Abl Y393F kinase assay; settings: Table 8
T3 construct: 2 μg/mL Abl kinase domain; made in house
T3 sequence (P00520 242-493 Y393F limits assumed): T2 sequence (P00520 242-493 T315I limits assumed) with I74T, Y152F
Description: as §2, §3, §4, §5
as §1, with “coefficient” for “coeffecient”
as §6, §7, §8, §9

SMILES	IC50 ([1]; Table 6) [nM]	IC50 [2] [nM]	IC50 [3] [nM]	also measured
O=C(Nc1nc2[nH]nc(-c3cccc(C(F)(F)F)c3)c2s1)c1ccccc1				IC50 ([1]; Table 5): 1000 to 10000 nM
O=C(Nc1nc2[nH]nc(-c3ccncc3)c2s1)c1ccccc1	< 100			
O=C(Nc1nc2[nH]nc(-c3ccccc3)c2s1)c1ccno1	< 100			
CC(C)(C)c1n[nH]c2nc(NC(=O)c3ccccc3)sc12	100 to 1000			
O=C(Nc1nc2[nH]nc(-c3ccco3)c2s1)c1ccccc1	100 to 1000			
O=C(Nc1nc2[nH]nc(-c3ccccn3)c2s1)c1ccco1	100 to 1000			
CC(C)(C)c1n[nH]c2nc(NC(=O)c3ccncc3)sc12	> 1000			
CC(=O)Nc1nc2[nH]nc(-c3ccccc3Cl)c2s1		> 1000	> 1000	
O=C(Nc1nc2[nH]nc(-c3ccccc3)c2s1)c1cccs1		500 to 1000	500 to 1000	
O=C(Nc1nc2[nH]nc(-c3cccc(Br)c3)c2s1)c1ccccc1		> 1000	> 1000	
COCC(=O)Nc1nc2[nH]nc(-c3ccccc3)c2s1		> 1000	> 1000	
O=C(Nc1nc2[nH]nc(-c3ccc(Cl)cc3)c2s1)c1ccccc1 [drawing 246]				IC50 ([1]; Table 5): < 1000 nM
O=C(Nc1nc2[nH]nc(-c3ccccc3)c2s1)c1ccncc1 [drawing 248]				IC50 ([1]; Table 5): < 1000 nM
O=C(Nc1nc2[nH]nc(-c3ccccc3)c2s1)c1cccc(Br)c1 [drawing 249]				IC50 ([1]; Table 5): 1000 to 10000 nM
COCCOCC(=O)Nc1nc2[nH]nc(-c3ccccc3)c2s1 [drawing 250]				IC50 ([1]; Table 5): 1000 to 10000 nM
CC(=O)N1CCC(C(=O)Nc2nc3[nH]nc(-c4ccccc4)c3s2)CC1 [drawing 251]				IC50 ([1]; Table 5): 1000 to 10000 nM
O=C(Nc1nc2[nH]nc(-c3ccc(O)cc3)c2s1)C1CC1 [drawing 254]	< 100			
O=C(Nc1nc2[nH]nc(-c3ccccc3)c2s1)c1cccc(Br)c1 [drawing 259]	> 1000			
O=C(Nc1nc2[nH]nc(-c3ccccc3Cl)c2s1)C1CC1 [drawing 266]		< 500	< 500	
O=C(Nc1nc2[nH]nc(-c3ccccc3Br)c2s1)C1CC1 [drawing 267]		< 500	< 500	
O=C(Nc1nc2[nH]nc(-c3ccccc3)c2s1)c1ccco1 [drawing 268]		< 500	< 500	
COc1ccc(-c2n[nH]c3nc(NC(=O)C4CC4)sc23)cc1 [drawing 271]		500 to 1000	> 1000	
